Measured values published in patent US20250127868A1, “HYPERACTIVATING LIPID NANOPARTICLES” (Corner Therapeutics, Inc., priority 2022, published 2025).

Tests used:
Type in all cases: cell-based
human PBMCs [1] = assay: IFNγ secretion by human PBMCs (ELISA); details: two days post-activation
Procedure: (§1) Isolation of PBMCs from Whole Blood. PBMCs were isolated from whole blood using density gradient centrifugation with Ficoll-Paque PLUS (Cytivia). Whole blood was diluted 1:1 with PBS, layered on top of Ficoll-Paque PLUS and centrifuged at 1000×g for 30 minutes at room temperature. PBMCs were collected, washed twice in PBS, and incubated with Ack lysis buffer (Lonza) to remove any remaining red blood cells.
(§2) Cell Culture and Stimulation. Immediately following isolation, PBMCs were plated in RPMI medium containing 10% FBS, 50 units/mL penicillin, […] streptomycin, 2 mM L-glutamine, 1 mM sodium pyruvate, and […] beta-mercaptoethanol (R10 media). […]
(§3) Endpoint Analyses. […] Half of the media volume in the wells was collected for cytokine quantification by Enzyme-Linked Immunosorbent Assay (ELISA) or Lumit™ Bioluminescent assay, while the remaining media and cells were used to quantify cell viability by assessing metabolic activity.
(§4) Quantification of Cytokine Secretion. IL-1β secretion from human PBMCs was assessed using one of the following kits: ELISA MAX Deluxe Set Human IL-1β kit (Biolegend), Invitrogen Human IL-1β kit, or the Lumit™ Human IL-1β Immunoassay (Promega). IFNγ secretion from human PBMCs was assessed using the ELISA MAX Deluxe Set Human IFNγ (Biolegend) and TNFα secretion from human PBMCs was assessed using the Human TNFα Uncoated ELISA kit (Invitrogen). […]

canine PBMCs = assay: IL-1β secretion by canine PBMCs (ELISA); details: two days post-activation, R848 1 μg/mL, 22:0 LYSO PC 82.5 μM, LPS 1 μg/mL, Alum 30 μg/mL
human PBMCs [2] = assay: IL-1β secretion by human PBMCs (ELISA or Lumit); details: two days post-activation, R848 1 μg/mL, 22:0 LYSO PC 82.5 μM
Procedure: as §1, §2, §3, §4

Compound | IFNγ secretion, fold change per donor relative to R848 alone (human PBMCs [1]) | IL-1β secretion (canine PBMCs) | IL-1β secretion (human PBMCs [2])
Nc1nc2c(ncn2[C@@H]2O[C@@H]3COP(=O)(O)O[C@H]4[C@@H](O)[C@H](n5cnc6c(N)ncnc65)O[C@@H]4COP(=O)(O)O[C@@H]2[C@@H]3O)c(=O)[nH]1 [2′3′cGAMP, reference compound] | neither GM-CSF nor 2′3′cGAMP elicited a substantial fold change in IFNγ secretion | neither GM-CSF nor 2′3′cGAMP induced significant IL-1β secretion | 
GM-CSF: human GM-CSF (Peprotech), added at 10 ng/ml | neither GM-CSF nor 2′3′cGAMP elicited a substantial fold change in IFNγ secretion | neither GM-CSF nor 2′3′cGAMP induced significant IL-1β secretion | did not induce levels of IL-1β secretion from human PBMCs significantly above background levels
